Like-named read-outs stand apart in the source and are kept apart here. Marks after values point to notes of the source that are not given here.
How the values were obtained:
Human GR = biological target: T1, Human GR (Homo sapiens, UniProt P00390); test: Human GR enzyme inhibition (GSSG reduction, NADPH oxidation); type: biochemical; details: for % inhibition: hGR; for inhibition at 15 µM / inhibition at 30 µM / inhibition at 66.7 µM: read-out: hGR % inhibition
T1 construct: made in house
T1 sequence (P00390 44-522): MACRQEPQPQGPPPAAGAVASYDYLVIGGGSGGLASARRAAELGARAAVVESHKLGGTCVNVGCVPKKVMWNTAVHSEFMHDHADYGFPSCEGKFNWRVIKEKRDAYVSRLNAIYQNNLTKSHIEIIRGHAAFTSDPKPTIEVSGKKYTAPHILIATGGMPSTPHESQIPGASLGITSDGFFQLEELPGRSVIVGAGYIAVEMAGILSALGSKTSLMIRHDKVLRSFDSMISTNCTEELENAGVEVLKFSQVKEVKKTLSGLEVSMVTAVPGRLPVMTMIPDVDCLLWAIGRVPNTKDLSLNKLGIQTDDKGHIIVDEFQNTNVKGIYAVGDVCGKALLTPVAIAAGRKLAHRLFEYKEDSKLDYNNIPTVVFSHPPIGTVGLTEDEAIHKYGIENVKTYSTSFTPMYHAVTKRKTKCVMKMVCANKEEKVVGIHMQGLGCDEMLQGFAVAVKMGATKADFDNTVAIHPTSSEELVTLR

[1] = system: S. mansoni newly transformed schistosomula (NTS); test: Schistosomicidal activity ex vivo, NTS (Cell Titer Glo); type: cell-based; details: for LD50 ex vivo S. mansoni NTS: 24 h exposure, Cell TiterGlo; for viability at 0.5 µM / viability at 1 µM / viability at 5 µM / viability at 10 µM / viability at 20 µM / viability at 30 µM: Schistosoma mansoni
Procedure: Oncomelania hupensis subsp. hupensis, Chinese strain, infected with S. japonicum, Chinese strain, and Biomphalaria glabrata, strain NMRI, infected with S. mansoni, strain NMRI, were provided by the NIAID Schistosomiasis Resource Center for distribution through BEI Resources, NIAID, NIH. After infections were patent, snails were exposed to bright light for 1 hr to obtain cercariae. Cercariae were mechanically transformed to schistosomula. Briefly, cercariae were placed on ice for 30 min and then centrifuged at 350 × g for 10 mins. The supernatant was decanted and 2 ml of serum-free M199 medium was added to cercarial pellets and vortexed for 1 min until cercarial tails were detached. NTS were purified by layering on 4 °C Percoll gradient suspension containing Eagle’s minimum essential medium, penicillin-streptomycin (10,000 U per ml penicillin/10,000 U per ml streptomycin), and 1 M HEPES in 0.85% NaCl with cercariae suspension and centrifuged at 500 × g for 15 min. Cercarial pellets were resuspended and washed thrice in serum-free M199 medium and collected at 100 × g for 5 min. NTS (240) were transferred to U-bottom 96 well assay plates containing 200 µl of M199 medium supplemented with 5.5 mM D-glucose, penicillin-streptomycin and 5% heat inactivated fetal bovine serum and incubated at 37 °C in a 5% CO2 incubator overnight.
(§1) DMSO formulated compounds were diluted with phenol red free M199 medium or RPMI medium for NTS or juvenile and adult worms, respectively, at <1% DMSO final concentrations. NTS, juvenile and adult worms from overnight cultures were tested against compounds in triplicate. Controls were treated with DMSO alone or 5 µM AF as a positive control in appropriate medium. Worm viability was assessed at 24 or 72 h by measuring ATP content of worms using Cell Titer Glo Assay (Promega) as described. Schistosome viabilities in the presence of the compounds were assessed using this formula: % Viability = Averages of Test / Averages of DMSO Control x 100.

Vero cells = test: Cytotoxicity in mammalian cells (Cell Titer Glo); type: cell-based; details: for % viability: Vero cells; for LD50 ex vivo VERO: 24-hour exposure
Procedure: Following overnight incubation, formulated DMSO-compound stock solutions were diluted with DMEM at <1% DMSO final concentrations. […] Vero cells treated similarly with different concentrations of PZQ, MZM and AF (Cayman Chemicals) were used as positive controls.

S. mansoni adult worms = test: Schistosomicidal activity ex vivo, adult worms (Cell Titer Glo), alone or with channel blockers; type: cell-based; details: for viability at 5 µM / viability at 15 µM / viability at 30 µM / viability at 50 µM: Schistosoma mansoni; for LD50 ex vivo S. mansoni adult: 24 h exposure, compound alone
Procedure: Three-week old, female Swiss-Webster mice obtained from the Charles River were housed in the Comparative Research Center of Rush University Medical Center. Mice were infected by percutaneous tail exposure to about 200 S. mansoni or 50 S. japonicum cercaria for adult worms and about 1000 cercaria for juvenile S. mansoni worms through natural transdermal penetration of the cercariae for 1 h[81].
as §1, with “Worm viability was assessed at 24 or 72 h by measuring ATP content of worms using Cell Titer Glo Assay (Promega) as described.” left out

[2] = system: TGR in newly transformed schistosomula (NTS); test: TGR inhibition in NTS with TRFS-Green fluorescent probe; type: cell-based, S. mansoni; details: 2 h with inhibitor (30 µM; AF 3 µM) then TRFS-Green 10 µM
Procedure, shortened: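 TGR activity in NTS was probed with the fluorescent reagent TRFS-Green. Parasites in M199 medium with glucose, antibiotics and heat-inactivated serum were kept overnight in clear-bottom plates, exposed to 10 µM probe for 4 h, then washed. Signal from probe uptake was read on a microplate imager (ex 438 nm, em 538 nm) hourly for 5 h and after 24 h.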

[3] = 15 minutes pre-incubation, compound 15 µM
[4] = 15 minutes pre-incubation, compound 30 µM
[5] = 15 minutes pre-incubation, compound 66.7 µM
[6] = 6 hours pre-incubation, compound 15 µM
[7] = 6 hours pre-incubation, compound 30 µM
[8] = 6 hours pre-incubation, compound 66.7 µM
[9] = 15 minutes pre-incubation, 15 µM
[10] = 15 minutes pre-incubation, 30 µM
[11] = 15 minutes pre-incubation, 66.7 µM
[12] = 6 hours pre-incubation, 66.7 µM

Cc1oc(-c2ccccc2)nc1CN[C@@H]1C[C@@H]2C[C@H]([C@H]1C)C2(C)C [C3]
% inhibition (Human GR; [3]): -2.234% | % inhibition (Human GR; [4]): -5.497% | % inhibition (Human GR; [5]): -7.805% | % inhibition (Human GR; [6]): -0.8033% | % inhibition (Human GR; [7]): -0.8345% | % inhibition (Human GR; [8]): -0.3955% | % viability ([1]; S. mansoni NTS, Conc. 5 µM): 6.85% | % viability ([1]; S. mansoni NTS, Conc. 15 µM): 0.6968% | % viability ([1]; S. mansoni NTS, Conc. 30 µM): 0.5581% | % viability ([1]; S. mansoni NTS, Conc. 50 µM): 0.6054% | % viability (Vero cells; Conc. 5 µM): 99.3244% | % viability (Vero cells; Conc. 10 µM): 93.7147% | % viability (Vero cells; Conc. 25 µM): 77.3582% | % viability (Vero cells; Conc. 35 µM): 52.4878% | % viability (Vero cells; Conc. 50 µM): 28.6792%

Cc1oc(-c2ccc3ccccc3c2)nc1CNC1CCCCCC1 [C5]
% inhibition (Human GR; [3]): -0.1784% | % inhibition (Human GR; [4]): -0.6429% | % inhibition (Human GR; [5]): -2.462% | % inhibition (Human GR; [6]): -0.4334% | % inhibition (Human GR; [7]): -1.271% | % inhibition (Human GR; [8]): -0.3907% | % viability ([1]; S. mansoni NTS, Conc. 1 µM): 80.9812% | % viability ([1]; S. mansoni NTS, Conc. 5 µM): 52.5668% | % viability ([1]; S. mansoni NTS, Conc. 15 µM): 62.9498% | % viability ([1]; S. mansoni NTS, Conc. 35 µM): 0.09782% | % viability ([1]; S. mansoni NTS, Conc. 50 µM): 0.07949% | % viability (Vero cells; Conc. 5 µM): 99.0699% | % viability (Vero cells; Conc. 10 µM): 99.036% | % viability (Vero cells; Conc. 25 µM): 93.1095% | % viability (Vero cells; Conc. 35 µM): 87.9829% | % viability (Vero cells; Conc. 50 µM): 82.6807%

C[C@@H]1[C@H]2C[C@@H](C[C@H]1NCc1nc3ccccc3n1C)C2(C)C [C12]
hGR % inhibition (Human GR; [9]): -0.9179% | hGR % inhibition (Human GR; [10]): -2.193% | hGR % inhibition (Human GR; [11]): -0.3071% | hGR % inhibition (Human GR; 6 hours pre-incubation, 15 µM): -3.5243% | hGR % inhibition (Human GR; 6 hours pre-incubation, 30 µM): -2.022% | hGR % inhibition (Human GR; [12]): -0.874% | % viability ([1]; S. mansoni NTS, 5 µM, relative to Worm + M199 control): 95.6217% | % viability ([1]; S. mansoni NTS, 15 µM, relative to Worm + M199 control): 91.9573% | % viability ([1]; S. mansoni NTS, 30 µM, relative to Worm + M199 control): 88.4326% | % viability ([1]; S. mansoni NTS, 50 µM, relative to Worm + M199 control): 85.8655%

C[C@@H]1[C@H]2C[C@@H](C[C@H]1NCc1cc(-c3ccccc3)[nH]n1)C2(C)C [Compound 11]
Human GR (inhibition at 66.7 µM) (Human GR; 66.7 µM): n.i. | inhibition at 15 µM (Human GR; [9]): -0.832% | inhibition at 30 µM (Human GR; [10]): -1.45% | inhibition at 66.7 µM (Human GR; [11]): -1.01% | inhibition at 15 µM (Human GR; 6 hours pre-incubation, 15 µM): -0.778% | inhibition at 30 µM (Human GR; 6 hours pre-incubation, 30 µM): -1.99% | inhibition at 66.7 µM (Human GR; [12]): -2.81% | viability at 5 µM (S. mansoni adult worms; S. mansoni adult worms, 5 µM, relative to Worm + RPMI control, read-out: % viability): 97.5% | viability at 15 µM (S. mansoni adult worms; S. mansoni adult worms, 15 µM, relative to Worm + RPMI control, read-out: % viability): 93.7% | viability at 30 µM (S. mansoni adult worms; S. mansoni adult worms, 30 µM, relative to Worm + RPMI control, read-out: % viability): 89.4% | viability at 50 µM (S. mansoni adult worms; S. mansoni adult worms, 50 µM, relative to Worm + RPMI control, read-out: % viability): 88.5% | LD50 ex vivo S. mansoni NTS [1]: >50^a µM

C[C@@H]1[C@H]2C[C@@H](C[C@H]1NCc1nc3ccccc3n1C)C2(C)C [Compound 12]
Human GR (inhibition at 66.7 µM) (Human GR; 66.7 µM): n.i. | TRFS-Green fluorescence in NTS [2]: negligible effects | LD50 ex vivo S. mansoni adult (S. mansoni adult worms): >50^a µM | LD50 ex vivo S. mansoni NTS [1]: >50^a µM

C[C@@H]1N=C(c2ccccc2Cl)c2cc([N+](=O)[O-])ccc2NC1=O [MZM, meclonazepam, reference compound]
LD50 ex vivo S. mansoni adult (S. mansoni adult worms): 26.9 ± 0.97 µM | viability at 5 µM (S. mansoni adult worms): 91.9% | viability at 15 µM (S. mansoni adult worms): 69.8% | viability at 30 µM (S. mansoni adult worms): 48.7% | viability at 50 µM (S. mansoni adult worms): 31.3% | LD50 ex vivo S. mansoni NTS [1]: 13.7 ± 0.87 µM | viability at 0.5 µM [1]: 93.3% | viability at 1 µM [1]: 87.2% | viability at 5 µM [1]: 64.8% | viability at 10 µM [1]: 57.8% | viability at 20 µM [1]: 43.9% | viability at 30 µM [1]: 35.2% | LD50 ex vivo VERO (Vero cells): >50^a µM

O=C(C1CCCCC1)N1CC(=O)N2CCc3ccccc3C2C1 (centres unmarked) [PZQ, praziquantel]
LD50 ex vivo S. mansoni adult (S. mansoni adult worms): 32.8 ± 4.07 µM | viability at 5 µM (S. mansoni adult worms): 95.6% | viability at 15 µM (S. mansoni adult worms): 75.1% | viability at 30 µM (S. mansoni adult worms): 54.8% | viability at 50 µM (S. mansoni adult worms): 35.2% | LD50 ex vivo S. mansoni NTS [1]: 27.1 ± 2.27 µM | viability at 20 µM [1]: 58.2% | viability at 0.5 µM ([1]; S. mansoni NTS, Conc. 0.5 µM, read-out: % viability): 94.3% | viability at 1 µM ([1]; S. mansoni NTS, Conc. 1 µM, read-out: % viability): 91.8% | viability at 5 µM ([1]; S. mansoni NTS, Conc. 5 µM, read-out: % viability): 85.6% | viability at 10 µM ([1]; S. mansoni NTS, Conc. 10 µM, read-out: % viability): 71.9% | viability at 30 µM ([1]; S. mansoni NTS, Conc. 30 µM, read-out: % viability): 35.8% | LD50 ex vivo VERO (Vero cells): >50^a µM

From PMC10287695, “Non-covalent inhibitors of thioredoxin glutathione reductase with schistosomicidal activity in vivo” (Nature Communications, 2023)
